Data reported in US12194022B2, “Use of amisulpride as an anti-emetic” (ACACIA PHARMA LIMITED, priority 2010, dated 2025).
Entries after “also recorded” stand apart in the source; their conditions may differ.

How the values were obtained:
[1] = system: patients undergoing routine surgery; experiment: Phase IIa study of prophylaxis of post-operative nausea and vomiting; format: in vivo, human; details: single dose at the time of the operation; 24-hour period post-operation
Description: A formulation of the invention was prepared, suitable for intravenous administration. It is a 2.5 mg/ml citrate-buffered solution (nominal pH 5.0) of amisulpride. The composition is given below.
The effects of amisulpride are studied in patients undergoing routine surgery in a randomised, controlled, open-label phase IIa study of efficacy of a single dose as prophylaxis of post-operative nausea and vomiting. The primary endpoint is the incidence of nausea and vomiting in the 24-hour period post-operation. The drug is administered at the time of the operation. The secondary endpoints are the nausea and vomiting rates and severity (measured separately) over 0-2 hours, 2-6 hours and 6-24 hours post-operation. In addition, the use of rescue medication and safety/adverse events, are recorded.

[2] = system: ferrets; experiment: Cisplatin-induced emesis in ferrets; format: in vivo, ferret
Description: (§1) The method used to test antiemetic activity preclinically follows that described by Gardner et al. (Brit. J. Pharmacol., 116: 3158-3163, 1995) and uses ferrets.
(§2) Sixty minutes before administration of the test substance, ferrets are placed in individual stainless steel cages (40×50×34 cm) with a grid floor. Then, the animals are challenged with apomorphine (0.25 mg/kg s.c.), morphine (0.4 mg/kg i.p.) or cisplatin (10 mg/kg i.p.) and immediately observed over at least a 2-hour period. Parameters recorded include: number of ferrets showing retches and vomits; latency to first retching; latency to first vomiting; number of retches; vomiting (number of vomits); number of emesis periods and mean duration of emesis periods. Retching is defined as a rhythmic respiratory movement against a closed glottis, while vomiting is defined as a forced expulsion of upper gastrointestinal contents.
Where cisplatin is used as the emetogen, amisulpride (n=6 per group) or vehicle (n=6) is administered intravenously at least 5 minutes before the administration of cisplatin. The observation period is up to 72 hours, which allows effects on early and late phase emesis to be observed.
More specifically, data are reported from an experiment in which the observation period was 3 hours following cisplatin challenge. Cisplatin induced the occurrence of retches and vomits in 7 and 5 of 9 animals tested respectively. The mean incidences were 79.8±22.2 retches, 3.0±1.1 vomits and 10.7±2.8 emetic periods. Retches and vomits occurred after 85 minutes 6 seconds±7 minutes 53 seconds and 86 minutes 39 seconds±10 minutes 28 seconds respectively amisulpride was given at 0.2, 0.6, 2 and 6 mg/kg. At 0.2 mg/kg the incidence of retches was 23.3±10.8 (a 71% decrease in mean value), of vomits 0.2±0.2 (a 93% decrease) and emesis periods 3.7±2.0 (a 65% decrease). At 0.6 mg/kg the incidence of retches was 62.5±59.0, vomits 1.3±1.1 and emesis periods 3.7±1.3. […] At 2.0 mg/kg the incidence of retches was 3.3±2.5, vomits 0.2±0.2 and emesis periods 0.5±0.3. […] At 6 mg/kg the incidences were 11.7±3.8 retches, 1.2±1.0 vomits and 3.7±1.3 emesis periods.
As indicated above, droperidol is a known agent for the treatment of PONV.

[3] = UKPAR Special Warnings and Precautions for Use; cited from earlier work
[4] = system: ferrets; experiment: Morphine-induced emesis in ferrets; format: in vivo, ferret
Description: as §1, §2
Where morphine is used as the emetogen, amisulpride (n=6 per group) or vehicle (n=6) is administered intravenously 5 minutes before the administration of morphine. The observation period is 2 hours after administration of the morphine.

[5] = system: ferrets; experiment: Apomorphine-induced emesis in ferrets; format: in vivo, ferret
Description: as §1, §2
Where apomorphine is used as the emetogen, amisulpride (or vehicle) was administered subcutaneously (s.c. 30 minutes before administration of apomorphine). Animals (6 per group) were treated with vehicle or amisulpride at 1, 10, or 100 μg/kg given sub-cutaneously. The observation period was 2 hours after apomorphine administration.

[6] = system: dog; details: cited from earlier work
[7] = amisulpride 0.2 mg/kg, 3 hours observation
[8] = amisulpride 0.6 mg/kg, 3 hours observation
[9] = amisulpride 2.0 mg/kg, 3 hours observation
[10] = amisulpride 6 mg/kg, 3 hours observation
[11] = amisulpride 3 mg/kg i.v. before morphine, 2 hour observation
[12] = amisulpride 6 mg/kg i.v. before morphine
[13] = amisulpride 6 mg/kg i.v. before morphine, 2 hour observation
[14] = amisulpride 12 mg/kg i.v. before morphine, 2 hour observation
[15] = amisulpride 1 μg/kg s.c. 30 minutes before apomorphine 0.25 mg/kg s.c., 2 hour observation

CCN1CCCC1CNC(=O)c1cc(S(=O)(=O)CC)c(N)cc1OC (centres unmarked) [Amisulpride]
effect on nausea, vomiting and retching associated with PONV [1]: demonstrate the effect of amisulpride against the nausea as well as the vomiting and retching associated with PONV
incidence of retches ([2]; amisulpride 0.2 mg/kg i.v. before cisplatin 10 mg/kg i.p., 3 hours observation): 23.3±10.8
decrease in emesis periods vs control [2, 7]: 65%
decrease in mean retches vs control [2, 7]: 71%
decrease in vomits vs control [2, 7]: 93%
emesis periods [2, 7]: 3.7±2.0
incidence of vomits [2, 7]: 0.2±0.2
efficacy compared with droperidol ([2]; amisulpride 0.6 mg/kg (one animal excluded) and 2 mg/kg vs droperidol 3 mg/kg given 5 minutes before cisplatin): better than droperidol at 3 mg/kg; also recorded: more effective than droperidol at 3 mg/kg
emesis periods [2, 8]: 3.7±1.3
incidence of vomits [2, 8]: 1.3±1.1
incidence of retches ([2]; amisulpride 0.6 mg/kg, 3 hours observation, one animal had an early, exaggerated response): 62.5±59.0
emesis periods [2, 9]: 0.5±0.3
incidence of retches [2, 9]: 3.3±2.5
incidence of vomits [2, 9]: 0.2±0.2
emesis periods [2, 10]: 3.7±1.3
incidence of retches [2, 10]: 11.7±3.8
incidence of vomits [2, 10]: 1.2±1.0
effect on emetic effects of cisplatin vs vehicle control ([2]; i.v., 72 hour period, early and late stages): reduces the emetic effects of cisplatin, in dose-dependent manner
effect on QT interval [3]: induces a dose dependent prolongation of the QT interval
number of retches ([4]; amisulpride 3 mg/kg i.v. 5 minutes before morphine 0.4 mg/kg i.p., 2 hour observation): 28.7±7.1
incidence of vomits [4, 11]: abolished the incidence of vomits
number of emesis periods [4, 11]: 5.2±1.4
decrease in emesis periods vs control [4, 12]: 56%
decrease in retches vs control [4, 12]: ~50%
decrease in vomits vs control [4, 12]: 72%
number of emesis periods [4, 13]: 3.3±1.1
number of retches [4, 13]: 17.8±6.8
number of vomits [4, 13]: 0.5±0.3
number of emesis periods [4, 14]: 5.7±1.5
number of retches [4, 14]: 31.7±11.2
number of vomits [4, 14]: 0.8±0.4
effect on emetic effects induced by morphine vs vehicle control ([4]; i.v., 2 hour observation): reduces the emetic effects induced by morphine, in dose-dependent manner
number of emesis periods [5, 15]: 1.5±0.6
number of retches [5, 15]: 6.0±2.2
number of vomits [5, 15]: 0±0
inhibition of apomorphine emesis ([5]; amisulpride 10 μg/kg s.c.): totally inhibited
inhibition of apomorphine emesis ([5]; amisulpride 100 μg/kg s.c.): totally inhibited
effect on apomorphine-induced vomiting [6]: inhibit apomorphine-induced vomiting in the dog
